In US8323695B2, “Method for stabilizing phenylephrine” (McNeil-PPC, Inc., priority 2007, dated 2012):
Counter-ions that a name gives are not always drawn.

How the values were obtained:
[1] = Stability of phenylephrine in solid formulations after spray drying an acidic solution; type: physicochemical
Excerpt: Phenylephrine is known to experience physical and chemical degradation. Degradation of phenylephrine may be caused by a variety of factors including, but not limited to, the presence of oxygen, moisture, reducible sugars, bases, high temperatures, etc. […] Degradation of phenylephrine may be noticed by a change in color, e.g. changing from a whitish color to a darker, blackish color. Additionally, phenylephrine may degrade chemically as recorded by degradation peaks during analysis, such as an HPLC analysis. It is desirable to prevent, reduce or minimize the degradation of phenylephrine. An embodiment of the present invention provides a stable pharmaceutical composition having phenylephrine in a therapeutically effective amount wherein the phenylephrine has been spray dried. An additional embodiment of the present invention provides a stable composition of phenylephrine in a therapeutically effective amount wherein the phenylephrine has been layered or sprayed onto a substrate.

[2] = Formation of phenylephrine-maleate adducts as a function of pH; type: physicochemical; details: combined with chlorpheniramine maleate
Excerpt: Phenylephrine may be unstable in the presence of active ingredients which are the soluble salts of maleic acid. Phenylephrine-Maleate adducts form when phenylephrine hydrochloride is combined with chlorpheniramine maleate in solution and in solid dosage forms. This is due to the presence of phenylephrine with maleic acid. It was discovered that a pH below 6.0 yields low levels of one type of phenylephrine-maleate adduct (degradant #1) and it was also discovered that a pH above 4.5 yields low levels of a second type of phenylephrine-maleate adduct (degradant #2).

stability of phenylephrine in solid formulations [1]	levels of second type of phenylephrine-maleate adduct (degradant #2) ([2]; pH above 4.5)	levels of phenylephrine-maleate adduct (degradant #1) ([2]; pH below 6.0)	Compound
increases the stability	–	–	CNC[C@H](O)c1cccc(O)c1 [phenylephrine]
–	low levels	low levels	CNC[C@H](O)c1cccc(O)c1 [phenylephrine hydrochloride]
